Assay results: article PMC5536191 (ACS chemical biology, 2017)
“Also recorded” adds a separate entry of the source.

Assays:
Will-2 cells = assay: H3K27Me3 levels in DLBCL cells; type: cell-based
MCF7 cells = assay: H3Cit26 and H3K27Me3 levels after estradiol stimulation; type: cell-based
T47D cells [1] = assay: as above; type: cell-based
T47D cells [2] = type: cell-based
PAD [3] = assay: PAD inhibition by F-Amidine; type: biochemical; conditions: F-Amidine 1 mM, 15 min
PRC2 = conditions: F-Amidine 1 mM
PAD [4] = conditions: ref [46]; cited from earlier work
PRC2 complex = assay: PRC2 methyltransferase activity on histone H3 after PAD preincubation; type: biochemical, human; conditions: PAD preincubation with H3; Figure S1A and B
UTX and JMJD3 = assay: Co-immunoprecipitation with PAD2 in MCF7 nuclear extracts; type: binding; conditions: MCF7 nuclear extracts post E2 stimulation
ERα = assay: Co-immunoprecipitation of PAD2 and ERα in MCF7 nuclear extracts; type: binding; conditions: MCF7 nuclear extracts post E2 stimulation

With N=C(CF)NCCC[C@H](NC(=O)c1ccc(-c2ccccc2)cc1)c1nc2ccccc2[nH]1 [BB-F-Amidine, N1-[1,4′-Phenyl]benzoyl-N5-(2-fluoro-1-inimoethyl)-1-(1H-benzo[d]imidazole-2-yl)-L-ornithine amide] the “H3K27Me3 increase by PAD inhibitor in EZH2 knockdown cells” value (Will-2 cells; EZH2 knockdown cells treated with PAD inhibitor) was “attenuated” and the “increase in H3K27Me3 levels” value (Will-2 cells; PAD inhibitor treatment, DLBCL line (Will-2)) was 4 fold.

With C[C@]12CC[C@@H]3c4ccc(O)cc4CC[C@H]3[C@@H]1CC[C@@H]2O [E2, 17-β-estradiol] the H3K27Me3 level (MCF7 cells; 100 nM, 4 h) was “modest reduction in H3K27Me3 levels”, the H3Cit26 signal (MCF7 cells; E2 stimulation, after 2 h) was “lost” and the H3K27Me3 level (T47D cells [1]; 100 nM, 1 h) was “modest reduction in H3K27Me3 levels”. The H3Cit26 signal (T47D cells [1]; E2 stimulation, after 2 h) was “greatly reduced”.

For CCN(c1cc(-c2ccc(CN3CCOCC3)cc2)cc(C(=O)NCc2c(C)cc(C)[nH]c2=O)c1C)C1CCOCC1 [EPZ-6438], the “effect on H3K27Me3 increase of PAD2 knockdown cells” value (Will-2 cells; PAD2 knockdown cells treated with EZH2 inhibitor) was “attenuated” and the “effect on baseline transcription before estradiol stimulation” value (T47D cells [2]; 5 μM EPZ-6438, 5 days, absence of estradiol) was “basal transcriptional level is increased relative to control cells; also recorded: increased baseline transcription prior to E2 stimulation”.

In the case of N=C(CF)NCCC[C@H](NC(=O)c1ccccc1)C(N)=O [F-Amidine, N-α-benzoyl-N5-(2-fluoro-1-iminoethyl)-L-ornithine amide], the “inhibition of PAD reaction” value (PAD [3]) is given as “completely inhibits the PAD reaction”, the “effect on methyltransferase activity of PRC2” value (PRC2) is given as “no effect on the methyltransferase activity of PRC2” and the PAD inhibition character (PAD [4]) is given as “highly selective, irreversible pan-PAD inhibitor”.

In the case of CCOC(=O)CCNc1cc(N2CCc3ccccc3CC2)nc(-c2ccccn2)n1 [GSK-J4], the “effect on E2-stimulated transcription of ERα-target genes (e.g. GDNF and KRT13)” value (T47D cells [2]; 400 nM GSK-J4, 5 days, baseline vs 60 min E2) is reported as “downregulated”.

In the case of PAD2: Protein Arginine Deiminase type-2, the “effect on PRC2 catalyzed methylation, time and dose dependence” value (PRC2 complex) is reported as “decrease PRC2 catalyzed methylation in a time- and dose-dependent manner”, the “co-immunoprecipitation with UTX and JMJD3” value (UTX and JMJD3) is reported as “co-immunoprecipitates UTX and JMJD3” and the “co-immunoprecipitation of PAD2 and ERα” value (ERα) is reported as “PAD2 and ERα co-immunoprecipitate”.

In the case of PAD4: Protein Arginine Deiminase type-4, the “effect on PRC2 catalyzed methylation, time and dose dependence” value (PRC2 complex) is reported as “decrease PRC2 catalyzed methylation in a time- and dose-dependent manner”.
